As a reminder, the EC50 is the concentration needed to bring the measured effect to its halfway point. The low end stands for higher potency in that assay, the high end for lower potency in that assay. Usually IC50 stands for the point on the concentration scale where inhibition reaches its midpoint.

This note sets out measurements from US20100029710A1, “COMPOUNDS HAVING BOTH ANGIOTENSIN II RECEPTOR ANTAGONISM AND PPARy ACTIVATING ACTIVITIES” (Pfizer Products Inc., priority 2006, published 2010).

Assay [1] deals with T1, human PPARγ LBD bound to Gal4 DBD (Homo sapiens, UniProt P37231).
T1 construct: expressed in transfected cells; host or cells: HepG2
T1 sequence (P37231 238-503 limits assumed): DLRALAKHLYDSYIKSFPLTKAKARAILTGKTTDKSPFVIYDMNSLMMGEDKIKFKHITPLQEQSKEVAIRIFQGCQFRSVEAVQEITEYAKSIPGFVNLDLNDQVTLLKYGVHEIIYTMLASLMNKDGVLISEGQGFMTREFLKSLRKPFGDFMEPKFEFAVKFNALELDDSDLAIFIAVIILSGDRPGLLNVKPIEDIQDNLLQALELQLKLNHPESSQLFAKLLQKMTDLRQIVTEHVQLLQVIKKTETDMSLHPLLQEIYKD
Briefly: PPARγ transfection luciferase reporter assay in HepG2 cells. Particulars: for Emax: HepG2, 24 h, compared to full agonist response (standard TZD full agonist), read-out: PPARγ % activation; for EC50: HepG2, 24 hours exposure. It is filed as cell-based. As to the method:
PPARγ agonist activity may be determined by a cell line transiently transfected with PPARγ bound to a DNA binding domain that controls luciferase expression. The degree of receptor agonism is measured by the amount of luciferase activity after compound treatment. The ratio of treated cells over vehicle control cells provides a measure of fold activation and allows an EC50 (shown in tables I and II as […] EC50) and % activation to be calculated
A human hepatocellular carcinoma cell line (HepG2) was subcultured into dishes and transiently transfected with DNA to allow expression of human PPARγ LBD bound to Gal4 DBD. Luciferase reporter gene and β-galactosidase control genes were co-transfected to enable activity to be measured. After 24 hours, cells were exposed to compounds in the concentration range of 0.1 nM-100 μM and left for a further 24 hours. Luciferase activity is determined by luminometry and PPARγ activation is expressed as a ratio of luciferase activity to β-galactosidase activity to account for transfection efficiency. Potency is described by an EC50 defined as the concentration of compound producing receptor activation equivalent to 50% of the maximum for that compound (shown in Table I as transfection EC50). The maximum fold activation is a measure of efficacy and is expressed as a percentage of a reference full agonist run in the same assay. Efficacy is described by % activation of receptor relative to a standard thiazolidinedione (TZD) full agonist.
In general terms: Reporter assays use an easily measured gene product as a stand-in for the process of interest.

In assay [2] the target is T2, Human recombinant AT1 receptor (Homo sapiens, UniProt P30556).
T2 construct: purchased
T2 sequence (P30556 1-359): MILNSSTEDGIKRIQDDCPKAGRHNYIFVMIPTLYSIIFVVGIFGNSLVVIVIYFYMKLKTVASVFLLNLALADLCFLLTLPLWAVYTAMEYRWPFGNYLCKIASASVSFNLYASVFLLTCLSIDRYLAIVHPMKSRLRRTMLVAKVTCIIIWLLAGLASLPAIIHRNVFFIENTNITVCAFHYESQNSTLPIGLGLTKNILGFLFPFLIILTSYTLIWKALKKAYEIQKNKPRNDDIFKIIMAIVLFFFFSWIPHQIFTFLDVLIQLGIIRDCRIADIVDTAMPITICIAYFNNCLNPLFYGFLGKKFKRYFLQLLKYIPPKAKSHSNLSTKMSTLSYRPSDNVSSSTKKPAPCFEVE
As to the kind of experiment: AT1 receptor radioligand binding (flashplate). The settings on record: 125I Sar1,Ile8-Angiotensin II radioligand. As to the method: Angiotensin II receptor antagonist activity may be determined using commercially available flashplates coated with the AT1 or AT2 receptor which provide a rapid and high throughput means to evaluate compounds compared to traditional filtration based assays (Regina M. Van Der Hee et al., Journal of Biomolecular Screening 10(2); 2005; 118-126).
AT1 receptor affinity was determined in a radioligand binding format using commercially available flashplate technology. Human recombinant AT1 receptor were coated on the wells of a 96 well flashplate and test compounds were diluted and added to wells at a final concentration range of 50 μM to 1 μM. Total binding was determined in the absence of compound and non-specific binding in the presence of 10 μM cold Angiotensin II. ^125I labeled Sar^1, Ile^8-Angiotensin II was added to all wells at Kd concentration and left for 2 hours at room temperature to equilibrate. Plates were read on a TopCount (Perkin Elmer) and concentration-response curves constructed using commercial curve fitting software. The Ki was determined via interpolation and the use of the Cheng-Prussof equation.

Regarding `CCc1nc2c(C)cc(CC(O)C3CC3)nc2n1[C@H]1CCc2cc(-c3ccccc3-c3nnn[nH]3)ccc21` (stereo partly drawn) [Example 19, 2 (3-((1S)-5-(2-(1H-tetrazol-5-yl)phenyl)-2,3-dihydro-1H-inden-1-yl)-2-ethyl-7-methyl-3H-imidazo[4,5-b]pyridin-5-yl)-1-cyclopropylethanol], in assay [1], the Emax came out at 20% and the EC50 amounted to 105 nM. Besides, the IC50 in assay [2] turned out to be 7.2 nM.
Consider `C=CCC(O)Cc1cc(C)c2nc(CC)n([C@H]3CCc4cc(-c5ccccc5-c5nnn[nH]5)ccc43)c2n1` (stereo partly drawn) [Example 20, 1-(3-((1S)-5-(2-(1H-tetrazol-5-yl)phenyl)-2,3-dihydro-1H-inden-1-yl)-2-ethyl-7-methyl-3H-imidazo[4,5-b]pyridin-5-yl)pent-4-en-2-ol], for which, in assay [1], the Emax turned out to be 31% and the midpoint of the response, the EC50, lay at 70 nM. Moreover, the IC50 in assay [2] amounted to 5.7 nM.
In the case of `CCc1nc2c(C)cc(CC(O)C(C)C)nc2n1[C@H]1CCc2cc(-c3ccccc3-c3nnn[nH]3)ccc21` (stereo partly drawn) [Example 21, 1-(3-((1S)-5-(2-(1H-tetrazol-5-yl)phenyl)-2,3-dihydro-1H-inden-1-yl)-2-ethyl-7-methyl-3H-imidazo[4,5-b]pyridin-5-yl)-3-methylbutane-2-ol], in assay [1], the Emax worked out at 23% and the EC50 worked out at 100 nM. For the same compound, the IC50 in assay [2] is 3.1 nM.
Regarding `CCc1nc2c(C)cc(C3OC3(C)C)nc2n1[C@H]1CCc2cc(-c3ccccc3-c3nnn[nH]3)ccc21` (stereo partly drawn) [Example 22, 3-((1S)-5-(2-(1H-tetrazol-5-yl)phenyl)-2,3-dihydro-1H-inden-1-yl)-5-(3,3-dimethyloxiran-2-yl)-2-ethyl-7-methyl-3H-imidazo[4,5-b]pyridine], in assay [1], the Emax stood at 28% and the response was half-maximal at 460 nM (EC50). Besides, the IC50 in assay [2] was 2.2 nM.
Turning to `CCc1nc2c(C)cc(/C=C/COC)nc2n1[C@H]1CCc2cc(-c3ccccc3-c3nnn[nH]3)ccc21` [Example 23, 3-((1S)-5-(2-(1H-tetrazol-5-yl)phenyl)-2,3-dihydro-1H-inden-1-yl)-2-ethyl-5-((E)-3-methoxyprop-1-enyl)-7-methyl-3H-imidazo[4,5-b]pyridine], in assay [1], the Emax was determined as 26% and the EC50 is 220 nM. Moreover, the IC50 in assay [2] was 4.8 nM.
`CCc1nc2c(C)cc(CCc3cccnc3)nc2n1[C@H]1CCc2cc(-c3ccccc3-c3nnn[nH]3)ccc21` [Example 24, 3-((1S)-5-(2-(1H-tetrazol-5-yl)phenyl)-2,3-dihydro-1H-inden-1-yl)-2-ethyl-7-methyl-5-(2-(pyridin-3-yl)ethyl)-3H-imidazo[4,5-b]pyridine]: in assay [1], the Emax worked out at 28% and the EC50 is 425 nM. The IC50 in assay [2] is 2.1 nM.
As for `CCc1nc2c(C)cc(CCc3ccccn3)nc2n1[C@H]1CCc2cc(-c3ccccc3-c3nnn[nH]3)ccc21` [Example 25, 3-((1S)-5-(2-(1H-tetrazol-5-yl)phenyl)-2,3-dihydro-1H-inden-1-yl)-2-ethyl-7-methyl-5-(2-(pyridin-2-yl)ethyl)-3H-imidazo[4,5-b]pyridine], in assay [1], the Emax stood at 26% and the response was half-maximal at 180 nM (EC50). For the same compound, in assay [2], the IC50 was found to be 2.4 nM.
On to `CCc1nc2c(C)cc(CCc3ccccc3F)nc2n1[C@H]1CCc2cc(-c3ccccc3-c3nnn[nH]3)ccc21` [Example 26, 3-((1S)-5-(2-(1H-tetrazol-5-yl)phenyl)-2,3-dihydro-1H-inden-1-yl)-5-(2-fluorophenethyl)-2-ethyl-7-methyl-3H-imidazo[4,5-b]pyridine], for which, in assay [1], the Emax is 26% and the concentration giving a half-maximal response (EC50) turned out to be 380 nM. The IC50 in assay [2] was found to be 10 nM.
In the same order, the values of `CCc1nc2c(C)cc(CCc3ccc(OC)cc3)nc2n1[C@H]1CCc2cc(-c3ccccc3-c3nnn[nH]3)ccc21` [Example 27, 3-((1S)-5-(2-(1H-tetrazol-5-yl)phenyl)-2,3-dihydro-1H-inden-1-yl)-5-(4-methoxyphenethyl)-2-ethyl-7-methyl-3H-imidazo[4,5-b]pyridine] are 21%, 485 nM and 2 nM.
On to `CCc1nc2c(C)cc(CCc3ccccc3C)nc2n1[C@H]1CCc2cc(-c3ccccc3-c3nnn[nH]3)ccc21` [Example 28, ((1S)-5-(2-(1H-tetrazol-5-yl)phenyl)-2,3-dihydro-1H-inden-1-yl)-5-(2-methylphenethyl)-2-ethyl-7-methyl-3H-imidazo[4,5-b]pyridine], for which, in assay [1], the Emax amounted to 15% and the EC50 worked out at 330 nM. The 50% inhibitory concentration (IC50) in assay [2] worked out at 2.2 nM.
In the same order, the values of `CCc1nc2c(C)cc(CCc3cccc(OC)c3)nc2n1[C@H]1CCc2cc(-c3ccccc3-c3nnn[nH]3)ccc21` [Example 29, 3-((1S)-5-(2-(1H-tetrazol-5-yl)phenyl)-2,3-dihydro-1H-inden-1-yl)-5-(3-methoxyphenethyl)-2-ethyl-7-methyl-3H-imidazo[4,5-b]pyridine] are 31%, 195 nM and 2.9 nM.
Take `CCc1nc2c(C)cc(CCc3ccccc3)nc2n1[C@H]1CCc2cc(-c3ccccc3-c3nnn[nH]3)ccc21` [Example 30, 3-((1S)-5-(2-(1H-tetrazol-5-yl)phenyl)-2,3-dihydro-1H-inden-1-yl)-2-ethyl-7-methyl-5-phenethyl-3H-imidazo[4,5-b]pyridine]: in assay [1], the Emax stood at 28% and a half-maximal response (EC50) required 160 nM. In assay [2], the IC50 was 6 nM.
In the case of `CCc1nc2c(C)cc(CCc3cc(C)ccc3C)nc2n1[C@H]1CCc2cc(-c3ccccc3-c3nnn[nH]3)ccc21` [Example 31, 3-((1S)-5-(2-(1H-tetrazol-5-yl)phenyl)-2,3-dihydro-1H-inden-1-yl)-5-(2,5-dimethylphenethyl)-2-ethyl-7-methyl-3H-imidazo[4,5-b]pyridine], in assay [1], the Emax is 63% and the EC50 came out at 45 nM. Further, the IC50 in assay [2] is 6.9 nM.
With `CCc1nc2c(C)cc(CCCc3cccnc3)nc2n1[C@H]1CCc2cc(-c3ccccc3-c3nnn[nH]3)ccc21` [Example 32, 3-((1S)-5-(2-(1H-tetrazol-5-yl)phenyl)-2,3-dihydro-1H-inden-1-yl)-2-ethyl-7-methyl-5-(3-(pyridin-3-yl)propyl)-3H-imidazo[4,5-b]pyridine], in assay [1], the Emax is 20% and the EC50 came to 510 nM. The IC50 in assay [2] turned out to be 2.1 nM.
With `CCc1nc2c(C)cc(CCCn3cccn3)nc2n1[C@H]1CCc2cc(-c3ccccc3-c3nnn[nH]3)ccc21` [Example 33, 5-(3-(1H-pyrazol-1-yl)propyl)-3-((1S)-5-(2-(1H-tetrazol-5-yl)phenyl)-2,3-dihydro-1H-inden-1-yl)-2-ethyl-7-methyl-3H-imidazo[4,5-b]pyridine], in assay [1], the Emax was 23% and it took 400 nM to reach a half-maximal effect (EC50). Further, the IC50 in assay [2] amounted to 2.1 nM.
On to `CCc1nc2c(C)cc(CCC(O)c3cccnc3)nc2n1[C@H]1CCc2cc(-c3ccccc3-c3nnn[nH]3)ccc21` (stereo partly drawn) [Example 34, 3-(3-((1S)-5-(2-(1H-tetrazol-5-yl)phenyl)-2,3-dihydro-1H-inden-1-yl)-2-ethyl-7-methyl-3H-imidazo[4,5-b]pyridin-5-yl)-1-(pyridin-3-yl)propan-1-ol], for which, in assay [1], the Emax was 12% and a half-maximal response (EC50) required 595 nM. Also, the IC50 in assay [2] was determined as 2.1 nM.
